Results reported in the supplement of paper PMC11368000.

Columns and labels:
Conditions in all cases: exposure time: 90 min
1118 [1] = donor line of iPSC-derived cardiomyocytes; test: POD (EC10) for decrease in total cell number (cytotoxicity) vs vehicle; higher = less potent (higher point of departure)
Outline: (§1)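 Human iPSC-derived cardiomyocytes from 16 donors were cultured 14 days in 384-well plates, then exposed for 90 min at 37 °C to 0.1, 1, 10 and 100 µM (final, 0.5% DMSO). After the Ca2+ flux read, cells were stained 15 min with Hoechst 33342 (2.2 µg/mL) and MitoTracker Orange and imaged at 10× on an ImageXpress Micro Confocal. Nuclei were counted per field in MetaXpress. Donor-specific cytotoxicity points of departure came from hierarchical Bayesian Hill fits to vehicle-normalised counts, using a 10% decrease.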

1309 [2] = donor line of iPSC-derived cardiomyocytes; test: as above
Outline: as §1

1516 = donor line of iPSC-derived cardiomyocytes; test: as above
Outline: as §1

1518 = donor line of iPSC-derived cardiomyocytes; test: as above
Outline: as §1

1531 = donor line of iPSC-derived cardiomyocytes; test: as above
Outline: as §1

20032 [3] = donor line of iPSC-derived cardiomyocytes; test: as above
Outline: as §1

30171 [4] = donor line of iPSC-derived cardiomyocytes; test: as above
Outline: as §1

1083 = donor line of iPSC-derived cardiomyocytes; test: POD (EC05) for increase in Ca2+ transient decay-to-rise ratio (QT prolongation) vs vehicle; higher = less potent (higher point of departure)
Protocol: (§2)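 Human iPSC-derived cardiomyocytes from 16 donors were exposed for 90 min at 37 °C to each PFAS at 0.1, 1, 10 and 100 µM in 0.5% DMSO, 384-well plates. Kinetic Ca2+ flux (FLIPR) and Hoechst nuclei counts were normalised to vehicle wells and fitted with a hierarchical Bayesian Hill model to give donor-specific PODs: EC05 for beat-rate increase or decrease and for decay-to-rise ratio increase (QT proxy), EC95 for peak-frequency loss (asystole), EC10 for total cell number loss. 0.03 µM is the lower bound.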

1118 [5] = test: as above
Protocol: as §2

11235 = donor line of iPSC-derived cardiomyocytes; test: as above
Protocol: as §2

1309 [6] = test: as above
Protocol: as §2

1368 = donor line of iPSC-derived cardiomyocytes; test: as above
Protocol: as §2

1392 = donor line of iPSC-derived cardiomyocytes; test: as above
Protocol: as §2

1434 = donor line of iPSC-derived cardiomyocytes; test: as above
Protocol: as §2

1535 = donor line of iPSC-derived cardiomyocytes; test: as above
Protocol: as §2

1565 = donor line of iPSC-derived cardiomyocytes; test: as above
Protocol: as §2

20032 [7] = test: as above
Protocol: as §2

20084 = donor line of iPSC-derived cardiomyocytes; test: as above
Protocol: as §2

30145 = donor line of iPSC-derived cardiomyocytes; test: as above
Protocol: as §2

30171 [8] = test: as above
Protocol: as §2

| SMILES | POD vs vehicle 1118 [1] | POD vs vehicle 1309 [2] | POD vs vehicle 1516 | POD vs vehicle 1518 | POD vs vehicle 1531 | POD vs vehicle 20032 [3] | POD vs vehicle 30171 [4] | POD vs vehicle 1083 | POD vs vehicle 1118 [5] | POD vs vehicle 11235 | POD vs vehicle 1309 [6] | POD vs vehicle 1368 | POD vs vehicle 1392 | POD vs vehicle 1434 | POD vs vehicle 1535 | POD vs vehicle 1565 | POD vs vehicle 20032 [7] | POD vs vehicle 20084 | POD vs vehicle 30145 | POD vs vehicle 30171 [8] |
| --- | --- | --- | --- | --- | --- | --- | --- | --- | --- | --- | --- | --- | --- | --- | --- | --- | --- | --- | --- | --- |
| O=S(=O)(O)C(F)(F)C(F)(F)C(F)(F)C(F)(F)C(F)(F)C(F)(F)C(F)(F)C(F)(F)F [Perfluorooctanesulfonic_acid] | > 100 µM | 88.7 µM | > 100 µM | > 100 µM | > 100 µM | > 100 µM | > 100 µM | > 100 µM | > 100 µM | > 100 µM | > 100 µM | > 100 µM | > 100 µM | > 100 µM | > 100 µM | > 100 µM | > 100 µM | > 100 µM | > 100 µM | > 100 µM |
| O=C(O)C(F)(F)C(F)(F)OC(F)(F)F [Perfluoro-3-methoxypropanoic_acid] | > 100 µM | > 100 µM | > 100 µM | > 100 µM | > 100 µM | > 100 µM | > 100 µM | > 100 µM | > 100 µM | > 100 µM | > 100 µM | > 100 µM | > 100 µM | > 100 µM | > 100 µM | > 100 µM | > 100 µM | > 100 µM | > 100 µM | > 100 µM |
| OCC(F)(F)C(F)(F)C(F)(F)C(F)F [1H,1H,5H-Perfluoropentanol] | > 100 µM | > 100 µM | > 100 µM | > 100 µM | > 100 µM | > 100 µM | > 100 µM | > 100 µM | > 100 µM | > 100 µM | > 100 µM | > 100 µM | > 100 µM | > 100 µM | > 100 µM | > 100 µM | > 100 µM | 5.77 µM | > 100 µM | > 100 µM |
| O=C(O)C(F)(F)C(F)(F)C(F)(F)C(F)(F)F [Perfluoropentanoic_acid] | > 100 µM | > 100 µM | > 100 µM | > 100 µM | > 100 µM | > 100 µM | > 100 µM | > 100 µM | > 100 µM | > 100 µM | > 100 µM | > 100 µM | > 100 µM | > 100 µM | > 100 µM | > 100 µM | > 100 µM | > 100 µM | > 100 µM | > 100 µM |
| O=C(CC(=O)C(F)(F)C(F)(F)F)C(F)(F)F [3H,3H-Perfluoro-2,4-hexanedione] | 25.1 µM | > 100 µM | 74.4 µM | > 100 µM | > 100 µM | > 100 µM | > 100 µM | > 100 µM | > 100 µM | > 100 µM | > 100 µM | > 100 µM | > 100 µM | > 100 µM | > 100 µM | > 100 µM | > 100 µM | > 100 µM | > 100 µM | > 100 µM |
| O=S(=O)([O-])C(F)(F)C(F)(F)C(F)(F)C(F)(F)F.[K+] [Potassium_perfluorobutanesulfonate] | > 100 µM | > 100 µM | > 100 µM | > 100 µM | > 100 µM | > 100 µM | > 100 µM | > 100 µM | > 100 µM | > 100 µM | > 100 µM | > 100 µM | > 100 µM | > 100 µM | > 100 µM | > 100 µM | > 100 µM | > 100 µM | > 100 µM | > 100 µM |
| O=C(O)C(F)(F)C(F)(F)C(F)(F)F [Perfluorobutanoic_acid] | > 100 µM | > 100 µM | > 100 µM | > 100 µM | > 100 µM | > 100 µM | > 100 µM | > 100 µM | > 100 µM | > 100 µM | > 100 µM | > 100 µM | > 100 µM | > 100 µM | > 100 µM | > 100 µM | > 100 µM | > 100 µM | > 100 µM | > 100 µM |
| OCC(O)CC(F)(F)C(F)(F)C(F)(F)C(F)(F)C(F)(F)C(F)(F)C(F)(F)C(F)(F)F (stereo not given) [1-(Perfluorofluorooctyl)propane-2,3-diol] | > 100 µM | > 100 µM | > 100 µM | > 100 µM | > 100 µM | > 100 µM | > 100 µM | > 100 µM | > 100 µM | > 100 µM | > 100 µM | > 100 µM | > 100 µM | > 100 µM | > 100 µM | > 100 µM | > 100 µM | > 100 µM | > 100 µM | > 100 µM |
| CN(CCO)S(=O)(=O)C(F)(F)C(F)(F)C(F)(F)C(F)(F)C(F)(F)C(F)(F)C(F)(F)C(F)(F)F [N-Methyl-N-(2-hydroxyethyl)perfluorooctanesulfonamide] | > 100 µM | > 100 µM | > 100 µM | > 100 µM | > 100 µM | > 100 µM | > 100 µM | > 100 µM | > 100 µM | > 100 µM | > 100 µM | > 100 µM | > 100 µM | > 100 µM | > 100 µM | > 100 µM | > 100 µM | > 100 µM | > 100 µM | > 100 µM |
